According to US20190315711A1 (eXIthera Pharmaceuticals, Inc., priority 2016, published 2019):

Tests used:
[1] = molecular target: human Factor XIa (Homo sapiens, UniProt P03951); assay: Factor XIa enzyme inhibition assay (dose response, fluorogenic AMC substrate); type: biochemical; parameters: Enzyme: Factor XIa; conditions: purified enzyme; substrate 50 μM, enzyme 0.25 nM; read-out: hFXIa IC50
Protocol: (§1) • Assay buffer: 20 mM Hepes, pH 7.4; 150 mM NaCl; 0.02% Tween 20 • Compounds: 10 mM stocks in DMSO • Substrate: 20 mM Glp-Pro-Arg-AMC, 25 mg/2.3 mL H2O (store at +4° C.) [Factor XIa, thrombin, and trypsin] • 20 mM Pro-Phe-Arg-AMC (Bachem I-1295), 25 mg/2.2 mL H2O or Boc-Leu-Gly-Arg-AMC (Bachem I-1105), 25 mg/2.07 mL H2O (store at +4° C.) [Factor Xa] • Enzyme: Factor XIa; 0.25 M in 50% glycerol (20 μg/mL) • Trypsin; 0.2 μM in 50% glycerol (4.8 μg/mL) • Thrombin; 0.2 μM in 50% glycerol (7.34 μg/mL) • Factor Xa; 0.2 μM in 50% glycerol (9.2 μg/mL)
(§2) • 1. Dilute the substrate to 100 μM in assay buffer (30 μL/6 mL). The enzyme is diluted to 0.5 nM just prior to use (12 L/6 mL for Factor XIa; 15 μL/6 mL for all of the rest.) • 2. Pipette 50 μL of substrate into each well of the 96 well (12×8) microtiter plate. (Column 1 is used as the 100% activity control and receives no compound, and Column 12 is the blank and receives no enzyme.) Add an additional 46 μL to column 2. • 3. Pipette 4 μL of each compound into the appropriate well in column 2 of the plate (unknowns assayed in triplicate, standard assayed in duplicate). The final compound concentration will be 1/50th of the stock. • 4. Serially two-fold dilute the compound by mixing the sample in column 2, removing 50 μL to the next well (column 3), mix and remove to column 4, etc. until column 11. After mixing column 11, remove 50 μL and discard. • 5. Pipette 50 μL of buffer into column 12. Initiate the reaction by adding 50 μL of enzyme solution to each well of columns 1-11 as rapidly as possible. • 6. Read the plate in a spectrophotometer (SpectraMax) at 30° C., wherein each well is measured every 60 s for 30 min. For Factor Xa assays, each well is measured every 1 min for a total of 60 min. • 7. For Factor XIa assays, the compounds are assayed, in duplicate, at 3 different starting concentrations, 20, 2, and 0.2 μM; 1:10, 1:100, and 1:1000 dilution of 10 mM stock or at 2, 0.2, and 0.02 μM; 1:100, 1:1000, and 1:10,000 dilution of 10 mM stock. Data for each concentration are combined for graphing and data fitting. • 8. Data can be used both for estimation of IC50 and for estimation of Kon.
Potential inhibitors of Factor XIa were evaluated using the following assay.
PyroGlu-Pro-Arg-7-methylaminocourin (AMC), available from CPC Scientific, Inc., is based on the substrate pyro-Glu-Pro-Arg-pNA (S-2366), available from Diapharma Group, Inc. (Columbus, Ohio), wherein the p-nitroanaline group is replaced with 7-methylaminocoumarin (AMC).
The final concentration of the substrate in the assay was 50 μM, and the final concentration of the enzyme was 0.25 nM. Inhibitors were tested by serial dilution over an appropriate range to yield a dose response curve for determination of the inhibitors' IC50 value. The assay mixture was read every minute for 30 minutes in order to generate progress curves. The plates were read in a Spectramax m5 Multimode Plate Reader (Molecular Devices LLC, Sunnyvale, Calif.). Dose response curves were fit to Equation 1 below in which A is the maximum inhibition, B is the minimum inhibition, C is the IC50, and D is the Hill coefficient.
Y=[(A−B)/(1+(X/C)^D)]+B (Equation 1)

[2] = molecular target: T1, Factor Xa (Homo sapiens, UniProt P00742); assay: Dose response assay for protease inhibitors: Factor Xa; type: biochemical; conditions: ratio versus Factor XIa
T1 construct: Factor Xa; 0.2 μM in 50% glycerol (9.2 μg/mL)
T1 sequence (P00742 235-488 limits assumed): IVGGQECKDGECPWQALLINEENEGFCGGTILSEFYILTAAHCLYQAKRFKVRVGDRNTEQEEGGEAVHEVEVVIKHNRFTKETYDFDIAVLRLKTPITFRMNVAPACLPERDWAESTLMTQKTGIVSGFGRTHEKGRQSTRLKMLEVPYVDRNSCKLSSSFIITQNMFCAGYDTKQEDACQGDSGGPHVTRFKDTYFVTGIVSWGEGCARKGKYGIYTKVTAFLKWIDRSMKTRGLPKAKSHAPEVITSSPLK
T1 sequence (P00742 41-179 partner limits assumed): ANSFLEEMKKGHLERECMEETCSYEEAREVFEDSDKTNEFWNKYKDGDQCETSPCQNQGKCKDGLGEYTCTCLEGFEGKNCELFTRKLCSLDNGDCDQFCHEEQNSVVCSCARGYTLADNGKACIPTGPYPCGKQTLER
Protocol: as §1, §2

[3] = molecular target: T2, Thrombin (Homo sapiens, UniProt P00734); assay: Dose response assay for protease inhibitors: thrombin; type: biochemical; conditions: ratio versus Factor XIa
T2 construct: Thrombin; 0.2 μM in 50% glycerol (7.34 μg/mL)
Protocol: as §1, §2

[4] = molecular target: T3, Trypsin (Bos taurus, UniProt P00760); assay: Dose response assay for protease inhibitors: trypsin; type: biochemical; conditions: ratio versus Factor XIa
T3 construct: gene PRSS1
T3 sequence (P00760 24-246): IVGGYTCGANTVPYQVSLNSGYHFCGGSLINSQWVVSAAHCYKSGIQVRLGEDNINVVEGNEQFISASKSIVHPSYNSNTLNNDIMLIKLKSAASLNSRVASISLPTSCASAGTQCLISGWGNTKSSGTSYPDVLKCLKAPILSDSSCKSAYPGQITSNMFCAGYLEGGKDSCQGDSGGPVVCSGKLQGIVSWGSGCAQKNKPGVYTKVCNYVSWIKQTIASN
Protocol: as §1, §2

[5] = Caco-2 cell permeability assay (A-B and B-A); type: in vitro ADME; conditions: human; for Papp A→B at 60 min, 10 μM: A-B direction; for Papp B→A at 40 min, 10 μM: B-A direction
Protocol: The following procedure was used to determine the ability of a test compound to cross Caco-2 cells (human intestinal epithelial cells derived from a colorectal adenocarcinoma). The cells were seeded at 1×10^5 cells/cm^2 in 96-well Multiscreen™ plates (Millipore). Permeability assays were performed with the cells at days 21-25 post-seeding. Cells are typically used for 15 consecutive passages in culture.
This assay can be performed in either the apical to basolateral (A−B) or basolateral to apical (B−A) direction. The test compound was prepared at 10 μM in HBSS-MES (pH 6.5) or HBSS-HEPES (pH 7.4) with a final DMSO concentration of 1%. The working solution was then centrifuged and the supernatant added to the donor side. The assay plate was incubated at 37° C. with gentle shaking for 60 min or 40 min for the A−B or B−A assay, respectively. Samples were aliquoted from the donor side at time zero and the end point, and from the receiver side at the end point.
Reference compounds, propranolol (highly permeable), labetalol (moderately permeable), ranitidine (poorly permeable), and colchicine (P-glycoprotein substrate) were included in each assay.
Samples are analyzed by HPLC-MS/MS using selected reaction monitoring. The HPLC system consists of a binary LC pump with autosampler, a C-18 column, and a gradient.
The apparent permeability coefficient (Papp) of the test compound (Equation 2) and its recovery (Equation 3) are calculated as follows: […]
wherein A is the surface area of the cell monolayer (0.11 cm^2), C is concentration of the test compound expressed as peak area, D denotes donor, and R is receiver. “0”, “mid,” and “end” denote time at zero, mid-point, and end of the incubation, respectively. At is the incubation time. V is the volume of the donor or receiver.
This is most likely due to non-specific binding or degradation.

Sequence of human Factor XIa (P03951 388-625 limits assumed): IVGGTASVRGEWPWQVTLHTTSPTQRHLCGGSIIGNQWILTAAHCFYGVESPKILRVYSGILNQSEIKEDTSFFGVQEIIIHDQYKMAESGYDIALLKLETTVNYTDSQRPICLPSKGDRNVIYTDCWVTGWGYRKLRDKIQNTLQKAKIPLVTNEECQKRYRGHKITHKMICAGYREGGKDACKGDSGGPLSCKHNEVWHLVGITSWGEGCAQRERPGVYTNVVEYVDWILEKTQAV
Sequence of human Factor XIa (P03951 19-387 partner limits assumed): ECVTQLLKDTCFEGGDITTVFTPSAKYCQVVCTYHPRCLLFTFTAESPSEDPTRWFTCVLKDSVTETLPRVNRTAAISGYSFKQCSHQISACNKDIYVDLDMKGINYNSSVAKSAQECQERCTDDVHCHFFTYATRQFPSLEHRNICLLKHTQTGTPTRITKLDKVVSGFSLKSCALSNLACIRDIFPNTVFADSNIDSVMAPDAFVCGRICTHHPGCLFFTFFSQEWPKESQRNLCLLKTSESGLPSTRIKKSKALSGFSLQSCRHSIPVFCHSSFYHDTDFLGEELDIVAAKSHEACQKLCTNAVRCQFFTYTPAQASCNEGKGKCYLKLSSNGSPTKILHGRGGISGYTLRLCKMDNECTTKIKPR

| Compound | IC50 [1] | also measured |
| --- | --- | --- |
| CCN(C(=O)[C@@H]1[C@@H](Cc2ccnc(N)c2)C(=O)N1C(=O)N[C@@H](C1CC1)C(F)(F)F)c1ncccn1 [Compound 79] | 10 to 100 nM | FXa/FXIa (selectivity ratio) [2]: H (“H” indicates 101-1000); Ratio: Thrombin/FXIa [3]: H (“H” indicates 101-1000) |
| CC(C)[C@@H](NC(=O)N1C(=O)[C@H](Cc2ccnc(N)c2)[C@H]1C(=O)N(C)c1ccccc1)C1CCCCC1 [Compound 35] | < 10 nM | FXa/FXIa (selectivity ratio) [2]: I (“I” indicates >500); Ratio: Thrombin/FXIa [3]: H (“H” indicates 101-1000); Ratio: Trypsin/FXIa [4]: G (“G” indicates 1-100) |
| CCN(C(=O)[C@@H]1[C@@H](Cc2ccnc(N)c2)C(=O)N1C(=O)N[C@@H](C1CCCCC1)C1CC1)c1ncccn1 [Compound 54] | < 10 nM | Papp A→B at 60 min, 10 μM [5]: 11 to 30 ×10⁻⁶ cm/s; Papp B→A at 40 min, 10 μM [5]: ≤ 10 ×10⁻⁶ cm/s |
| CCN(C(=O)[C@@H]1[C@@H](Cc2ccnc(N)c2)C(=O)N1C(=O)N[C@@H](C1CCCCC1)C(F)(F)F)c1ncccn1 [Compound 38] | < 10 nM | Papp A→B at 60 min, 10 μM [5]: ≤ 10 ×10⁻⁶ cm/s; Papp B→A at 40 min, 10 μM [5]: ≤ 10 ×10⁻⁶ cm/s |
| CC[C@@H](NC(=O)N1C(=O)[C@H](Cc2cc(C)nc(N)c2)[C@H]1C(=O)N(C)c1ccccc1)c1ccccc1 [Compound 119] | < 10 nM | FXa/FXIa (selectivity ratio) [2]: I (“I” indicates >500); Ratio: Thrombin/FXIa [3]: H (“H” indicates 101-1000); Ratio: Trypsin/FXIa [4]: G (“G” indicates 1-100) |
| CCN(C(=O)[C@@H]1[C@@H](Cc2ccnc(N)c2)C(=O)N1C(=O)N[C@@H](C1CCCCC1)C1CC1)c1ccccc1 [Compound 55] | < 10 nM | FXa/FXIa (selectivity ratio) [2]: I (“I” indicates >500); Ratio: Thrombin/FXIa [3]: H (“H” indicates 101-1000); Ratio: Trypsin/FXIa [4]: G (“G” indicates 1-100) |
| CN(C(=O)[C@@H]1[C@@H](Cc2ccnc(N)c2)C(=O)N1C(=O)N[C@@H](C1CC1)C(F)(F)F)c1ccccc1 [Compound 70] | 10 to 100 nM | Papp A→B at 60 min, 10 μM [5]: 11 to 30 ×10⁻⁶ cm/s; Papp B→A at 40 min, 10 μM [5]: 31 to 50 ×10⁻⁶ cm/s; FXa/FXIa (selectivity ratio) [2]: I (“I” indicates >500); Ratio: Thrombin/FXIa [3]: G (“G” indicates 1-100) |
| CC[C@@H](NC(=O)N1C(=O)[C@H](Cc2ccnc(N)c2)[C@H]1C(=O)N(C)c1cc(Cl)cc(Cl)c1)C1CCCCC1 [Compound 51] | < 10 nM | Papp A→B at 60 min, 10 μM [5]: ≤ 10 ×10⁻⁶ cm/s; Papp B→A at 40 min, 10 μM [5]: ≤ 10 ×10⁻⁶ cm/s |
| CC[C@@H](NC(=O)N1C(=O)[C@H](Cc2cc(C)nc(N)c2)[C@H]1C(=O)N(C)c1ccncc1)C1CCCCC1 [Compound 114] | < 10 nM |  |
| CC[C@@H](NC(=O)N1C(=O)[C@H](Cc2ccnc(N)c2)[C@H]1C(=O)N(C)c1ccccc1)c1ccc(C)nc1 [Compound 134] | < 10 nM |  |
| CN(C(=O)[C@@H]1[C@@H](Cc2ccnc(N)c2)C(=O)N1C(=O)NC(C(F)(F)F)C(F)(F)F)c1ccccc1 [Compound 71] | 10 to 100 nM |  |
| CC[C@@H](NC(=O)N1C(=O)[C@H](Cc2ccnc(N)c2)[C@H]1C(=O)N(C)c1ccncc1)c1cccc(Cl)c1Cl [Compound 125] | < 10 nM |  |
| CC[C@@H](NC(=O)N1C(=O)[C@H](Cc2ccnc(N)c2)[C@H]1C(=O)N(C)c1ccncc1)c1ccccc1C [Compound 96] | 10 to 100 nM | FXa/FXIa (selectivity ratio) [2]: I (“I” indicates >500) |
| CN(C(=O)[C@@H]1[C@@H](Cc2ccnc(N)c2)C(=O)N1C(=O)NCc1cccc(Cl)c1)c1ccncc1 [Compound 138] | < 10 nM |  |
| CC[C@@H](NC(=O)N1C(=O)[C@H](Cc2cc(N)ncc2F)[C@H]1C(=O)N(C)c1ccccc1)C1CCCCC1 [Compound 85] | > 1000 nM |  |
| CN(C(=O)[C@@H]1[C@@H](Cc2ccnc(N)c2)C(=O)N1C(=O)N[C@@H](C1CCCCC1)C(F)(F)F)c1cnccn1 [Compound 30] | < 10 nM |  |
| CC[C@@H](NC(=O)N1C(=O)[C@H](Cc2cc(C)nc(N)c2)[C@H]1C(=O)N(C)c1ccncc1)c1ccc(C)nc1 [Compound 133] | 10 to 100 nM |  |
| CN(C(=O)[C@@H]1[C@@H](Cc2ccnc(N)c2)C(=O)N1C(=O)N[C@@H](C1CCCCC1)C(F)(F)F)c1ccncn1 [Compound 20] | < 10 nM |  |
| Cc1cc(N(C)C(=O)[C@@H]2[C@@H](Cc3ccnc(N)c3)C(=O)N2C(=O)N[C@@H](C2CCCCC2)C2CC2)ccn1 [Compound 56] | < 10 nM |  |
| CC[C@@H](NC(=O)N1C(=O)[C@H](Cc2ccnc(N)c2)[C@H]1C(=O)N(C)c1ccnc(C)c1)c1cccc(C)c1 [Compound 128] | < 10 nM |  |
| CC[C@@H](NC(=O)N1C(=O)[C@H](Cc2ccnc(N)c2)[C@H]1C(=O)N(C)c1ccccc1)c1ccc(OC(F)(F)F)cc1 [Compound 47] | 100 to 1000 nM |  |
| CC[C@@H](NC(=O)N1C(=O)[C@H](Cc2cc(C)nc(N)c2)[C@H]1C(=O)N(C)c1ccncc1)c1ccccc1 [Compound 122] | < 10 nM |  |
| CCN(C(=O)[C@@H]1[C@@H](Cc2ccnc(N)c2)C(=O)N1C(=O)N[C@@H](C1CCCCC1)C(F)(F)F)c1ccncc1 [Compound 33] | < 10 nM |  |
| CC[C@@H](NC(=O)N1C(=O)[C@H](Cc2ccnc(N)c2)[C@H]1C(=O)N(C)c1ccncc1)c1cccc(OC(F)(F)F)c1 [Compound 106] | 10 to 100 nM |  |
| CC[C@@H](NC(=O)N1C(=O)[C@H](Cc2ccnc(N)c2)[C@H]1C(=O)N(C)c1cc(C)nc(C)c1)c1cccc(C)c1 [Compound 129] | 10 to 100 nM |  |
| CCC[C@@H](NC(=O)N1C(=O)[C@H](Cc2ccnc(N)c2)[C@H]1C(=O)N(C)c1ncccn1)c1cccnc1 [Compound 74] | < 10 nM |  |
| CC[C@@H](NC(=O)N1C(=O)[C@H](Cc2cc(N)ncc2C)[C@H]1C(=O)N(C)c1ccccc1)C1CCCCC1 [Compound 88] | > 1000 nM |  |
| CC[C@@H](NC(=O)N1C(=O)[C@H](Cc2ccnc(N)c2)[C@H]1C(=O)N(C)c1cccc(F)c1)c1ccc(C)nc1 [Compound 136] | < 10 nM |  |
